Drawing on patent US4493838A, “Medicaments containing derivatives of 3-chloro-quinoline” (Pharmindustrie, priority 1980, dated 1985), this text covers Kd and Ki for eight molecules.

Usually Kd stands for a measure of binding affinity in units of concentration. The Ki is a dissociation constant, usually derived from enzyme kinetics or from competition with a known ligand.

The structures appear in SMILES notation.

The first assay concerns the target cerebral receptor sites of the benzodiazepines.
Assay: not given
Particulars: 3H-Diazepam; constant used in the formula for Ki; read-out: KD (constant of affinity); cited from earlier work.
As to `CN1C(=O)CN=C(c2ccccc2)c2cc(Cl)ccc21` [3H Diazepam], the Kd was 2.74 µM.

For the next assay the target is unchanged. As to the kind of experiment: Affinity for the cerebral receptor sites of the benzodiazepines (displacement of 3H-Diazepam, method of Mohler et al.). Particulars: displacement of 3H-Diazepam from its binding site; Ki calculated from IC50, C and KD. An excerpt:
The products have been tested according to the method of Mohler et al., Life Science, 1977, 20, 2101, which is relied on herein.
For the molecule `Clc1cnc2ccccc2c1CCC1CCNCC1` [Example 1, 3-Chloro-4-[2-(4-piperidyl)-ethyl]-quinoline], the Ki is 2 µM. Same read-out and setting: the figure for `COc1ccc2ncc(Cl)c(CCC3CCNCC3)c2c1` [Example 3, 3-Chloro-6-methoxy-4-[2-(4-piperidyl)-ethyl]-quinoline] is 12 µM. As to `Cc1nc2ccccc2c(CCC2CCNCC2)c1Cl` [Example 4, 2-Methyl-3-chloro-4-[2-(4-piperidyl)-ethyl]-quinoline], the inhibition constant Ki is 1 µM. For `Clc1c(-c2ccccc2)nc2ccccc2c1CCC1CCNCC1` [Example 5, 2-Phenyl-3-chloro-4-[2-(4-piperidyl)-ethyl]-quinoline], the Ki was 0.5 µM. Same read-out and setting: the figure for `Clc1cnc2ccccc2c1CC1CCNCC1` [Example 6, 3-Chloro-4-[(4-piperidyl)-methyl]-quinoline] is 5 µM; for `Cc1cccc2c(CC3CCNCC3)c(Cl)cnc12` [Example 8, 3-Chloro-8-methyl-4-[(4-piperidyl)-methyl]-quinoline] it is 10 µM. On the same count and under the same terms, next, `Clc1cc2ccccc2nc1CCC1CCNCC1` [Example 9, 3-Chloro-2-[2-(4-piperidyl)-ethyl]-quinoline]: 5 µM.
